The text below walks through data of patent US12590108B2, “Boracic acid compound” (Phaeno Therapeutics Co., Ltd, priority 2020, dated 2026).

Test in all cases: MIC shift, liquid microdilution, meropenem fixed at 4 μg/mL
Common to all, as to assay type: cell-based
(In broth dilution the organism is exposed to a series of concentrations in liquid medium.)

Experiment [1] relates to Escherichia coli ARLG-2829 (NDM-5, OXA-1). The settings on record: compound + meropenem fixed at 4 μg/mL; E. coli ARLG-2829 (urine clinical isolate), NDM-5, OXA-1. Here is the method: (§1) The test compound was tested for minimum inhibitory concentration against three strains of Klebsiella pneumoniae ATCC BAA-1705 (KPC-2), ATCC BAA-2470 (NDM-1), and ARLG-1196 (CTM-1 group, SHV, NDM, TEM), and one strain of Escherichia coli ARLG-2829 (NDM-5, OXA-1). According to the requirements of the Institute of Clinical And Laboratory Standard (CLSI), the minimum inhibitory concentration (MIC) of each drug combination was determined by liquid microdilution method under the premise of fixing the concentration of meropenem at 4 μg/mL.
(§2) Preparation of compound mother plate: On the day of the experiment, the compound to be tested (the final concentration was 0.3125 to 20 μg/mL) and meropenem (the final concentration ranged from 1 to 64 μg/mL) were dissolved in a corresponding solvent (sterile ddH2O or DMSO) to form 100× mother liquors with the highest test concentration, and the compound to be tested and meropenem were then subjected to 2-fold series gradient dilution in a V-bottom 96-well plate to obtain 100× working solutions with the final concentration.
(§3) Preparation of inoculation solution: Fresh bacterial clones were picked from an overnight Mueller Hinton II Agar medium (MHA, Cat. No. 211438, BD BBLTM) plate, suspended in sterilized physiological saline, and adjusted to a concentration of 1×10^8 CFU/mL, and the suspension was further diluted to 5-10^5 CFU/mL with Cation-Adjusted Mueller Hinton II Broth (MHB, Catalog #212332, BD BBLTM).
(§4) Detection of minimum inhibitory concentration (MIC): 1 μL of the compound to be tested and the meropenem working solution were transferred to the corresponding wells to be tested in a round-bottomed 96-well plate (Catalog #3788, Corning), and 98 μL of the inoculation solution was added to the round-bottomed 96-well plate containing drugs, which was an MIC test plate; and after the plate was inverted and cultured at 37° C. for 20-24 h, the MIC value was read, and the minimum inhibitory concentration for inhibiting bacterial growth was defined as MIC.

Experiment [2] relates to Klebsiella pneumoniae ARLG-1196 (CTM-1 group, SHV, NDM, TEM). The following applies: compound + meropenem fixed at 4 μg/mL; K. pneumoniae ARLG-1196, CTM-1 and isoforms thereof, SHV, NDM, TEM. Here is the method: as §1, §2, §3, §4
For experiment [3], the system named is Klebsiella pneumoniae ATCC BAA-1705 (KPC-2). The settings on record: compound + meropenem fixed at 4 μg/mL; K. pneumoniae ATCC BAA-1705, KPC-2. The procedure: as §1, §2, §3, §4
The subject of experiment [4] is Klebsiella pneumoniae ATCC BAA-2470 (NDM-1). The following applies: compound + meropenem fixed at 4 μg/mL; K. pneumoniae ATCC BAA-2470, NDM-1. The procedure:
as §1, §2, §3, §4

In general, MIC refers to the least concentration at which growth counts as inhibited. As for `CC1(C)Oc2ccc(F)c(C(=O)O)c2OB1O` [Compound 1], the MIC is above 20 µg/mL in experiment [1], above 20 µg/mL in experiment [2], 0.0625 µg/mL in experiment [3] and above 20 µg/mL in experiment [4].
`COB1Oc2c(ccc(F)c2C(=O)O)OC1(C)C` [Compound 2]: the MIC in experiment [1] is above 20 µg/mL; in experiment [2] it was above 20 µg/mL; in experiment [3], 20 µg/mL; in experiment [4] it was above 20 µg/mL.
For the compound `COc1ccc2c(c1C(=O)O)OB(O)CO2` [Compound 3], the MIC in experiment [1] is 5 µg/mL; in experiment [2], 2.5 µg/mL; in experiment [3], at most 0.3125 µg/mL; in experiment [4], 5 µg/mL.
With `O=C(O)c1c(F)cc(Cl)c2c1OB(O)CO2` [Compound 4], the minimum inhibitory concentration (MIC) in experiment [1] is 10 µg/mL; in experiment [2], 2.5 µg/mL; in experiment [3], at most 0.03 µg/mL; in experiment [4], 2.5 µg/mL.
For the compound `O=C(O)c1c(Cl)ccc2c1OB(O)CO2` [Compound 5], the MIC in experiment [1] was above 20 µg/mL; in experiment [2] it was 10 µg/mL; in experiment [3], at most 0.3125 µg/mL; in experiment [4] it was 20 µg/mL.
For `O=C(O)c1c(F)c(F)cc2c1OB(O)CO2` [Compound 6] the same measures were 20 µg/mL, 10 µg/mL, at most 0.03 µg/mL and 10 µg/mL.
For `O=C(O)c1ccc(Cl)c2c1OB(O)CO2` [Compound 7] the same measures were above 20 µg/mL, 20 µg/mL, at most 0.03 µg/mL and 20 µg/mL.
On the same counts, the results for `O=C(O)c1c(F)ccc2c1OB(O)CO2` [Compound 8] are 20 µg/mL, 10 µg/mL, at most 0.3125 µg/mL and 20 µg/mL.
For the compound `COB1COc2ccc(F)c(C(=O)O)c2O1` [Compound 9], the MIC in experiment [1] was above 20 µg/mL; in experiment [2], above 20 µg/mL; in experiment [3], at most 0.3125 µg/mL; in experiment [4], above 20 µg/mL.
With `O=C(O)c1cc(F)cc2c1OB(O)CO2` [Compound 10], the minimum inhibitory concentration (MIC) in experiment [1] was 10 µg/mL; in experiment [2], 2.5 µg/mL; in experiment [3] it was at most 0.03 µg/mL; in experiment [4], 5 µg/mL.
Take `COc1cc(Cl)c2c(c1C(=O)O)OB(O)CO2` [Compound 11]: the MIC in experiment [1] is 10 µg/mL; in experiment [2] it was 2.5 µg/mL; in experiment [3] it was at most 0.03 µg/mL; in experiment [4] it was 2.5 µg/mL.
As for `COc1c(Cl)c(Cl)c2c(c1C(=O)O)OB(O)CO2` [Compound 12], the MIC in experiment [1] was 10 µg/mL; in experiment [2], 2.5 µg/mL; in experiment [3], 0.06 µg/mL; in experiment [4], 5 µg/mL.
For `O=C(O)c1c2c(cc3c1O[B-](O)(O)CO3)CCCO2` [Compound 14] the same measures were 10 µg/mL, 2.5 µg/mL, at most 0.3125 µg/mL and 5 µg/mL.
For `COc1cc2c(c(C(=O)O)c1F)O[B-](O)(O)CO2` [Compound 16] the same measures were 10 µg/mL, 5 µg/mL, 0.625 µg/mL and 5 µg/mL.
As for `Cc1ccc2c(c1C(=O)O)O[B-](O)(O)CO2` [Compound 17], the MIC in experiment [1] was 20 µg/mL; in experiment [2], 10 µg/mL; in experiment [3], at most 0.3125 µg/mL; in experiment [4], 10 µg/mL.
Regarding `O=C(O)c1c(OCC2CC2)ccc2c1O[B-](O)(O)CO2` [Compound 20], the MIC in experiment [1] was 2.5 µg/mL; in experiment [2], 2.5 µg/mL; in experiment [3], 1.25 µg/mL; in experiment [4] it was 2.5 µg/mL.
